Test results reported in US8802597B2, “Herbicidal pyrimidines” (E I du Pont de Nemours and Company, priority 2003, dated 2014).

Experiments:
Assay in all cases: Test D pre/postemergence
Assay type in all cases: in vivo
Conditions in all cases: scale 0 to 100 (100 = complete control)
[1] = tested on: wheat (Triticum aestivum)
From the text: (§1) Seeds of plant species selected from catchweed bedstraw (galium; Galium aparine), common chickweed (Stellaria media), kochia (Kochia scoparia), lambsquarters (Chenopodium album), pigweed (Amaranthus retroflexus), Russian thistle (Salsola kali), wild buckwheat (Polygonum convolvulus), wild mustard (Sinapis arvensis), winter barley (Hordeum vulgare), and wheat (Triticum aestivum) were planted and treated preemergence with test chemicals formulated in a non-phytotoxic solvent mixture which included a surfactant.
(§2) At the same time, plants selected from these crop and weed species were treated with postemergence applications of some of the test chemicals formulated in the same manner. Plants ranged in height from 2 to 18 cm (1- to 4-leaf stage) for postemergence treatments. Treated plants and controls were maintained in a controlled growth environment for 15 to 25 days after which time all species were compared to controls and visually evaluated. Plant response ratings, summarized in Table D, are based on a scale of 0 to 100 where 0 is no effect and 100 is complete control. A dash (-) response means no test result.

[2] = tested on: lambsquarters (Chenopodium album)
From the text: as §1, §2

[3] = tested on: catchweed bedstraw (galium; Galium aparine)
From the text: as §1, §2

[4] = tested on: common chickweed (Stellaria media)
From the text: as §1, §2

[5] = tested on: wild buckwheat (Polygonum convolvulus)
From the text: as §1, §2

[6] = tested on: pigweed (Amaranthus retroflexus)
From the text: as §1, §2

[7] = tested on: Russian thistle (Salsola kali)
From the text: as §1, §2

[8] = tested on: wild mustard (Sinapis arvensis)
From the text: as §1, §2

kochia (Kochia scoparia) = tested on: kochia (Kochia scoparia)
From the text: as §1, §2

Nc1nc(C2CC2)nc(C=O)c1Br [Compound 26]
Plant response rating, Wheat ([1]; Postemergence, 125 g ai/ha): 45 | Plant response rating, Wheat ([1]; Postemergence, 250 g ai/ha): 20 | Plant response rating, Wheat ([1]; Preemergence, 125 g ai/ha): 25 | Plant response rating, Wheat ([1]; Preemergence, 250 g ai/ha): 35 | Plant response rating, Lambsquarters ([2]; Postemergence, 125 g ai/ha): 40 | Plant response rating, Lambsquarters ([2]; Postemergence, 250 g ai/ha): 50 | Plant response rating, Lambsquarters ([2]; Preemergence, 125 g ai/ha): 60 | Plant response rating, Lambsquarters ([2]; Preemergence, 250 g ai/ha): 65 | Plant response rating, Galium ([3]; Postemergence, 125 g ai/ha): 70 | Plant response rating, Galium ([3]; Postemergence, 250 g ai/ha): 85 | Plant response rating, Galium ([3]; Preemergence, 125 g ai/ha): 85 | Plant response rating, Galium ([3]; Preemergence, 250 g ai/ha): 100 | Plant response rating, Chickweed ([4]; Postemergence, 125 g ai/ha): 45 | Plant response rating, Chickweed ([4]; Postemergence, 250 g ai/ha): 55 | Plant response rating, Chickweed ([4]; Preemergence, 125 g ai/ha): 60 | Plant response rating, Chickweed ([4]; Preemergence, 250 g ai/ha): 65 | Plant response rating, Buckwheat, Wild ([5]; Postemergence, 125 g ai/ha): 35 | Plant response rating, Buckwheat, Wild ([5]; Postemergence, 250 g ai/ha): 55 | Plant response rating, Buckwheat, Wild ([5]; Preemergence, 125 g ai/ha): 65 | Plant response rating, Buckwheat, Wild ([5]; Preemergence, 250 g ai/ha): 95 | Plant response rating, Pigweed ([6]; Postemergence, 125 g ai/ha): 60 | Plant response rating, Pigweed ([6]; Postemergence, 250 g ai/ha): 70 | Plant response rating, Pigweed ([6]; Preemergence, 125 g ai/ha): 65 | Plant response rating, Pigweed ([6]; Preemergence, 250 g ai/ha): 100 | Plant response rating, Russian Thistle ([7]; Postemergence, 125 g ai/ha): 40 | Plant response rating, Russian Thistle ([7]; Postemergence, 250 g ai/ha): 40 | Plant response rating, Russian Thistle ([7]; Preemergence, 250 g ai/ha): 100 | Plant response rating, Mustard, Wild ([8]; Postemergence, 125 g ai/ha): 60 | Plant response rating, Mustard, Wild ([8]; Postemergence, 250 g ai/ha): 75 | Plant response rating, Mustard, Wild ([8]; Preemergence, 125 g ai/ha): 65 | Plant response rating, Mustard, Wild ([8]; Preemergence, 250 g ai/ha): 65 | Plant response rating, Kochia (kochia (Kochia scoparia); Postemergence, 125 g ai/ha): 35 | Plant response rating, Kochia (kochia (Kochia scoparia); Postemergence, 250 g ai/ha): 55 | Plant response rating, Kochia (kochia (Kochia scoparia); Preemergence, 125 g ai/ha): 55 | Plant response rating, Kochia (kochia (Kochia scoparia); Preemergence, 250 g ai/ha): 75

COC(=O)c1nc(C2CC2C)nc(N)c1Br (stereo not drawn) [Compound 28]
Plant response rating, Wheat ([1]; Postemergence, 62 g ai/ha): 20 | Plant response rating, Wheat ([1]; Postemergence, 125 g ai/ha): 35 | Plant response rating, Wheat ([1]; Postemergence, 250 g ai/ha): 35 | Plant response rating, Wheat ([1]; Preemergence, 62 g ai/ha): 20 | Plant response rating, Wheat ([1]; Preemergence, 125 g ai/ha): 35 | Plant response rating, Wheat ([1]; Preemergence, 250 g ai/ha): 35 | Plant response rating, Lambsquarters ([2]; Postemergence, 62 g ai/ha): 65 | Plant response rating, Lambsquarters ([2]; Postemergence, 125 g ai/ha): 70 | Plant response rating, Lambsquarters ([2]; Postemergence, 250 g ai/ha): 75 | Plant response rating, Lambsquarters ([2]; Preemergence, 62 g ai/ha): 60 | Plant response rating, Lambsquarters ([2]; Preemergence, 125 g ai/ha): 60 | Plant response rating, Lambsquarters ([2]; Preemergence, 250 g ai/ha): 60 | Plant response rating, Galium ([3]; Postemergence, 62 g ai/ha): 100 | Plant response rating, Galium ([3]; Postemergence, 250 g ai/ha): 100 | Plant response rating, Galium ([3]; Preemergence, 62 g ai/ha): 100 | Plant response rating, Galium ([3]; Preemergence, 125 g ai/ha): 100 | Plant response rating, Galium ([3]; Preemergence, 250 g ai/ha): 100 | Plant response rating, Chickweed ([4]; Postemergence, 62 g ai/ha): 65 | Plant response rating, Chickweed ([4]; Postemergence, 125 g ai/ha): 65 | Plant response rating, Chickweed ([4]; Postemergence, 250 g ai/ha): 65 | Plant response rating, Chickweed ([4]; Preemergence, 62 g ai/ha): 60 | Plant response rating, Chickweed ([4]; Preemergence, 125 g ai/ha): 60 | Plant response rating, Chickweed ([4]; Preemergence, 250 g ai/ha): 60 | Plant response rating, Buckwheat, Wild ([5]; Postemergence, 62 g ai/ha): 35 | Plant response rating, Buckwheat, Wild ([5]; Postemergence, 125 g ai/ha): 55 | Plant response rating, Buckwheat, Wild ([5]; Postemergence, 250 g ai/ha): 60 | Plant response rating, Buckwheat, Wild ([5]; Preemergence, 62 g ai/ha): 45 | Plant response rating, Buckwheat, Wild ([5]; Preemergence, 125 g ai/ha): 45 | Plant response rating, Buckwheat, Wild ([5]; Preemergence, 250 g ai/ha): 60 | Plant response rating, Pigweed ([6]; Postemergence, 62 g ai/ha): 60 | Plant response rating, Pigweed ([6]; Postemergence, 125 g ai/ha): 60 | Plant response rating, Pigweed ([6]; Postemergence, 250 g ai/ha): 70 | Plant response rating, Pigweed ([6]; Preemergence, 62 g ai/ha): 45 | Plant response rating, Pigweed ([6]; Preemergence, 250 g ai/ha): 80 | Plant response rating, Russian Thistle ([7]; Postemergence, 62 g ai/ha): 65 | Plant response rating, Russian Thistle ([7]; Postemergence, 125 g ai/ha): 70 | Plant response rating, Russian Thistle ([7]; Postemergence, 250 g ai/ha): 70 | Plant response rating, Russian Thistle ([7]; Preemergence, 62 g ai/ha): 45 | Plant response rating, Russian Thistle ([7]; Preemergence, 125 g ai/ha): 80 | Plant response rating, Russian Thistle ([7]; Preemergence, 250 g ai/ha): 100 | Plant response rating, Mustard, Wild ([8]; Postemergence, 62 g ai/ha): 45 | Plant response rating, Mustard, Wild ([8]; Postemergence, 125 g ai/ha): 60 | Plant response rating, Mustard, Wild ([8]; Postemergence, 250 g ai/ha): 60 | Plant response rating, Mustard, Wild ([8]; Preemergence, 62 g ai/ha): 60 | Plant response rating, Mustard, Wild ([8]; Preemergence, 125 g ai/ha): 60 | Plant response rating, Mustard, Wild ([8]; Preemergence, 250 g ai/ha): 60 | Plant response rating, Kochia (kochia (Kochia scoparia); Postemergence, 62 g ai/ha): 70 | Plant response rating, Kochia (kochia (Kochia scoparia); Postemergence, 125 g ai/ha): 75 | Plant response rating, Kochia (kochia (Kochia scoparia); Postemergence, 250 g ai/ha): 75 | Plant response rating, Kochia (kochia (Kochia scoparia); Preemergence, 62 g ai/ha): 45 | Plant response rating, Kochia (kochia (Kochia scoparia); Preemergence, 125 g ai/ha): 80 | Plant response rating, Kochia (kochia (Kochia scoparia); Preemergence, 250 g ai/ha): 100

CCOC(=O)C(OC(C)=O)c1nc(C2CC2)nc(N)c1Br (stereo not drawn) [Compound 47]
Plant response rating, Wheat ([1]; Postemergence, 31 g ai/ha): 30 | Plant response rating, Wheat ([1]; Postemergence, 62 g ai/ha): 35 | Plant response rating, Wheat ([1]; Postemergence, 125 g ai/ha): 35 | Plant response rating, Wheat ([1]; Postemergence, 250 g ai/ha): 45 | Plant response rating, Lambsquarters ([2]; Postemergence, 31 g ai/ha): 35 | Plant response rating, Lambsquarters ([2]; Postemergence, 62 g ai/ha): 35 | Plant response rating, Lambsquarters ([2]; Postemergence, 125 g ai/ha): 40 | Plant response rating, Lambsquarters ([2]; Postemergence, 250 g ai/ha): 45 | Plant response rating, Galium ([3]; Postemergence, 31 g ai/ha): 65 | Plant response rating, Galium ([3]; Postemergence, 62 g ai/ha): 75 | Plant response rating, Galium ([3]; Postemergence, 125 g ai/ha): 80 | Plant response rating, Galium ([3]; Postemergence, 250 g ai/ha): 98 | Plant response rating, Chickweed ([4]; Postemergence, 31 g ai/ha): 35 | Plant response rating, Chickweed ([4]; Postemergence, 62 g ai/ha): 60 | Plant response rating, Chickweed ([4]; Postemergence, 125 g ai/ha): 65 | Plant response rating, Chickweed ([4]; Postemergence, 250 g ai/ha): 70 | Plant response rating, Buckwheat, Wild ([5]; Postemergence, 31 g ai/ha): 60 | Plant response rating, Buckwheat, Wild ([5]; Postemergence, 62 g ai/ha): 65 | Plant response rating, Buckwheat, Wild ([5]; Postemergence, 125 g ai/ha): 65 | Plant response rating, Buckwheat, Wild ([5]; Postemergence, 250 g ai/ha): 70 | Plant response rating, Pigweed ([6]; Postemergence, 31 g ai/ha): 35 | Plant response rating, Pigweed ([6]; Postemergence, 62 g ai/ha): 50 | Plant response rating, Pigweed ([6]; Postemergence, 125 g ai/ha): 55 | Plant response rating, Pigweed ([6]; Postemergence, 250 g ai/ha): 65 | Plant response rating, Russian Thistle ([7]; Postemergence, 31 g ai/ha): 45 | Plant response rating, Russian Thistle ([7]; Postemergence, 62 g ai/ha): 55 | Plant response rating, Russian Thistle ([7]; Postemergence, 125 g ai/ha): 65 | Plant response rating, Russian Thistle ([7]; Postemergence, 250 g ai/ha): 70 | Plant response rating, Mustard, Wild ([8]; Postemergence, 31 g ai/ha): 55 | Plant response rating, Mustard, Wild ([8]; Postemergence, 62 g ai/ha): 60 | Plant response rating, Mustard, Wild ([8]; Postemergence, 125 g ai/ha): 65 | Plant response rating, Mustard, Wild ([8]; Postemergence, 250 g ai/ha): 70 | Plant response rating, Kochia (kochia (Kochia scoparia); Postemergence, 31 g ai/ha): 45 | Plant response rating, Kochia (kochia (Kochia scoparia); Postemergence, 62 g ai/ha): 50 | Plant response rating, Kochia (kochia (Kochia scoparia); Postemergence, 125 g ai/ha): 65 | Plant response rating, Kochia (kochia (Kochia scoparia); Postemergence, 250 g ai/ha): 75
